Experimental data from article PMC11220827 (Frontiers in Pharmacology, 2024).
Like-named read-outs stand apart in the source and are kept apart here.

Key:
[1] = system: Syrian Hamster Embryo (SHE) cells; conditions: ref SCCS 2022; cited from earlier work
HepG2 cells = test: cells; assay type: cell-based; conditions: for AC50: Homo sapiens, HepG2, 24 h
[2] = assay type: in vitro ADME; conditions: 3 nmol/cm^2 in the body lotion formulation
Source text: Additional information was required to determine whether an adjustment factor was needed to account for a difference in the absorption of daidzein after topical application and whether the absorption was impacted by the use of the intended (body lotion base) formulation. […]. […] […]. The results of this study are described in detail by [Géniès et al. (2024)] and are summarized here.

[3] = at 25°C, in vitro; ref Nan et al. (2014); cited from earlier work
ER = system: ER; parameters: method as in Opera; conditions: experimental call listed in the Opera output; ref Opera; cited from earlier work
5-HT2B (h) = 5-HT2B (h) (Homo sapiens, UniProt P41595); test: Pharmacology profiling: 5-HT2B (h) (agonist RL); assay type: binding
Chain of 5-HT2B (h) (P41595 whole entry): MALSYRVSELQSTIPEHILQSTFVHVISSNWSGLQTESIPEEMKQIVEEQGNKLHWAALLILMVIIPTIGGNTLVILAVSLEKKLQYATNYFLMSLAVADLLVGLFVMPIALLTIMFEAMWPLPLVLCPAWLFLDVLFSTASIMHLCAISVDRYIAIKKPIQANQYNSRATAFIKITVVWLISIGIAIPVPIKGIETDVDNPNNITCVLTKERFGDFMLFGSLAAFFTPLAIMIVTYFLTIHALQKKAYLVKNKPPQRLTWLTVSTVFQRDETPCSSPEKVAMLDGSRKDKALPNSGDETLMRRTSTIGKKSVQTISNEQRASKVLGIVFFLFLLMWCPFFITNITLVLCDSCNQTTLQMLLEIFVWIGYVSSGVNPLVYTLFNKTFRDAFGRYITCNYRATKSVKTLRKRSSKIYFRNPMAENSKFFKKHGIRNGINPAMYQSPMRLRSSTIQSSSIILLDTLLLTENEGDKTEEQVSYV
Source text: (§1) Cosmetics Europe’s Systemic Toxicity Taskforce (SysTox-TF) has extended the list of targets in an in vitro screen originally described by [Bowes et al. (2012)] to assess the effects of cosmetic chemicals on target molecules. The approach was based on the knowledge that various targets of pharmacological interest have been linked to human adverse drug reactions, and that screening of these has helped the pharma industry in identifying drug candidates with acceptable human safety profiles ([Bowes et al., 2012]; [Scott et al., 2022]). The methods used by the pharma industry were adapted for use in cosmetic chemical NGRA. A final list of 83 target assays were considered suitable for cosmetic chemical safety testing (see Supplementary Materials S1.7). The targets were receptors, ion channels, transporters and enzymes identified by the pharma industry as linked to human adverse drug reactions, supplemented by additional targets that have been reasoned to be linked to systemic toxicities of chemicals in animals. Chemicals that are flagged for a target are tested in follow-up dose-response assays to establish potency of the interaction. […]. [Valentin et al., 2018]; [Dodson et al., 2021]). […].
(§2) assay’s reference compound was set to 100%. For antagonist assays, the basal signal (exposure to fixed concentration of agonist only) was set to 100%. Activity of the samples was scaled accordingly, […]
(§3) Using these graphs, lowest […]
(§4) compound activity for antagonist assays.
(§5) S1.7. Pharmacology profiling assays […]
(§6) reasoned to link to pathological effects. […]
(§7) around the control level. […]
(§8) determine the potency (IC50).
(§9) Supplementary Table S4 Pharmacology profiling assay panel. […]

rats = conditions: cited from earlier work
Aromatase = system: Aromatase; parameters: method as in ToxCast; conditions: ref ToxCast; cited from earlier work; also: key: Pos = positive result; Neg = negative result; Inc = uncertain/inconclusive result
Estrogen pathway = system: Estrogen pathway; parameters: method as in ToxCast; conditions: ref ToxCast; read-out: Estrogen pathway: Receptor binding, AC50; cited from earlier work
Adenosine A2A (h) = Adenosine A2A (h) (Homo sapiens, UniProt P29274); test: Pharmacology profiling: Adenosine A2A (h) (agonist RL); assay type: binding
Chain of Adenosine A2A (h) (P29274 whole entry): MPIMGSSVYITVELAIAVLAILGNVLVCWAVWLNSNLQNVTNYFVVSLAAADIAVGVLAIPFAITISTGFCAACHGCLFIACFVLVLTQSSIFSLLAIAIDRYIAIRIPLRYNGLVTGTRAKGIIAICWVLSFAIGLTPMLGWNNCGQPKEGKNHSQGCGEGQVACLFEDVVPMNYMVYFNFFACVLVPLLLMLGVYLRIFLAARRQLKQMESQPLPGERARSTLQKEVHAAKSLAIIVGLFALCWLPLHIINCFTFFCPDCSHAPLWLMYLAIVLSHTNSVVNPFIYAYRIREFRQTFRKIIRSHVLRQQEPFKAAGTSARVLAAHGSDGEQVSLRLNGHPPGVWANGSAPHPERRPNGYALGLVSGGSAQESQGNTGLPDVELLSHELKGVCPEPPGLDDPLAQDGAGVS
Source text: as §1, §2, §3, §4, §5, §6, §7, §8, §9

COX1 (h) = COX1 (h) (Homo sapiens, UniProt P23219); test: Pharmacology profiling: COX1 (h); assay type: biochemical
Chain of COX1 (h) (P23219 24-599): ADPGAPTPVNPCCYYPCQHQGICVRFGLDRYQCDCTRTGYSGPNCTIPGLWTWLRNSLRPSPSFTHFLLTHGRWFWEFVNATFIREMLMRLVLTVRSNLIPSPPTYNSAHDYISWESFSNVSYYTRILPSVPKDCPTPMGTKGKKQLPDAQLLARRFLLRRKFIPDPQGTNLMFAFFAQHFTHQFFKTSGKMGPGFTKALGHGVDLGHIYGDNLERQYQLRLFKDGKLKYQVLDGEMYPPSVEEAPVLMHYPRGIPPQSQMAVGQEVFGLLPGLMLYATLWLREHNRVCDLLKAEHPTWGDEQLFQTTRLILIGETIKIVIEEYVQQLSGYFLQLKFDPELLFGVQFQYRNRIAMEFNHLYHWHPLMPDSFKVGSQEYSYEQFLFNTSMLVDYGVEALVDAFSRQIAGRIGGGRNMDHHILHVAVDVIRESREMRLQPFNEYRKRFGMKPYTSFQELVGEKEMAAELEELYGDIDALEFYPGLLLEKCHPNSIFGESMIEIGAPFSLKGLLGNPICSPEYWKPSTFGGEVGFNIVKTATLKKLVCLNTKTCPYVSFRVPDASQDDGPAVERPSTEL
Source text: targets. The list of targets included the original panel of 44 targets (including receptors, ion channels,
transporters and enzymes) recommended by 4 major pharmaceutical companies as significant
reasoned to link to pathological effects. Results showing an inhibition or stimulation higher than 50%
are considered to represent significant effects (i.e. a “hit”).
and 50% are indicative of weak to moderate effects and results showing an inhibition (or stimulation)
around the control level. For several targets, additional concentration effect assays were conducted to
determine the potency (IC50). The concentrations tested (in duplicate) ranged between 30 nM and 100

Method for H295R cells: DMSO (1% compound stock in incubation mixture).
was measured on a Berthold luminometer.
Serial dilutions of the compounds were incubated in Tris -buffer (pH 8.0) overnight at 4°C in the
incubation mixture). After incubation, TTR-bound and free T4 were separated on a Bio-Gel P-6DG
column. The eluate was added to assay medium after which TRβ CALUX cells were exposed for 24 h
For this TRβ CALUX exposure, serum-free assay medium was used.
wells plates in assay medium, and exposed for 48h to a serial dilution of the compound in triplicate
exposure, the assay medium was analysed on the ERα and AR CALUX bioassays as described
Changes in hormone levels compared to a vehicle control exposure
Preincubation with rat liver S9 fraction
To assess the effect of metabolism on the activity of the test
compound for these assays, preincubations with rat liver S9 were performed. Compounds (10 μl
DMSO stock solution) were incubated for 0 h (control) or 3 h (test condition) in a total volume of 1
ml TRIS buffer in the presence of 1% (v/v) PB/BNF induced rat liver S9 mix (including NADPH and
an NADPH-regenerating system). After incubation, the reaction was stopped by the addition of ice
cold acetone, and samples were frozen to stimulate protein precipitation. After thawing, the
precipitated protein fraction was subsequently removed by centrifugation. The supernatant, cont aining
the metabolites and any remaining non-metabolised parent compound, was concentrated under a
gentle nitrogen flow. After evaporating to dryness, the sample was taken up in 50 μl DMSO followed
by the addition of 50 μl TRIS buffer. This extract was used for the exposure of the hTPO inhibition,
Relative light units (RLUs) of the CALUX assays were analysed as follows. For agonist assays,
background values (exposure to DMSO only) were subtracted, and the maximum activity of the
resulting in expression of the data as “percentage of maximum reference response”. Graphs were
generated using the statistical software package GraphPad Prism V5.03. Using these graphs, lowest
effect concentrations (LOECs) and PC50 concentrations were determined; LOEC is defined as the
maximum reference compound activity for agonist assays, and 20% of the maximum reference
compound activity for antagonist assays. The PC50 is defined as the concentration where the activity
of the sample equals 50% of the maximum activity of the assay’s reference compound.
the test compound was divided by the amount of estrogens and androgens produced by the solvent
control-exposed cells. A sample was considered ‘active’ if it decreased the hormone production 0.8-
Method for U2-OS cells: using the U2-OS based CALUX cytotox bioassay. The cytotoxicity of each test chemical was assessed using the U2-OS based cytotoxicity CALUX bioassay. Concentrations causing >20% reduction of luminescence were considered cytotoxic.
cytotoxicity (relative induction in the cytotoxicity CALUX bioassay > 80%) were used for final
evaluation of analysis results.
induction in the cytotox CALUX bioassay > 80%) were used for final evaluation of analysis results.
All analysis results were expressed in molar (M) final in well.
For the analyses in the presence of rat liver S9, 0.03% (v/v) of PB/BNF induced rat liver
S9 mix (including NADPH and an NADPH-regenerating system) was added to the cells directly after
addition of the compounds, which remained there for the duration of the exposure period (24 h) (van

## O=c1c(-c2ccc(O)cc2)coc2cc(O)cc(O)c12 [Genistein, 5,7-DIHYDROXY-3-(4-HYDROXYPHENYL)-4-BENZOPYRONE]
[1]
  Cell transformation assay (SHE cells) result: one was positive
HepG2 cells
  AhR Translocation: Effect: increase
  Apoptosis & necrosis: caspase 3/7: Effect: increase
  Apoptosis & necrosis: cell cycle arrest: Effect: decrease
  Cellular ATP: Effect: decrease
  DNA damage: Phospho-p53: Effect: increase
  DNA damage: p-H2AX: Effect: increase
  ER stress panel 1: ER integrity: Effect: increase
  ER stress panel 1: XBP1: Effect: increase
  ER stress panel 2: CHOP: Effect: increase
  Inflammation & pH: HIF1α: Effect: increase
  Inflammation & pH: ICAM-1: Effect: increase
  Inflammation & pH: intracellular pH: Effect: increase
  Metal stress: MTF1: Effect: decrease
  Mitochondrial mass: Effect: increase
  Mitochondrial membrane potential: Effect: decrease
  Nuclear size: Effect: increase
  Osmotic & heat shock: NFAT: Effect: increase
  Oxidative stress: HMOX1: Effect: increase
  Oxidative stress: NRF2: Effect: increase
  Seahorse assay: Extracellular acidification rate (ECAR): Effect: decrease
  Seahorse assay: oxygen consumption rate (OCR): Effect: decrease
  Seahorse assay: reserve capacity: Effect: decrease
HepG2 cells; read-out: AhR Translocation: AC50
  AC50: > 100 µM
HepG2 cells; read-out: Apoptosis & necrosis: caspase 3/7: AC50
  AC50: > 100 µM
HepG2 cells; read-out: Apoptosis & necrosis: cell cycle arrest: AC50
  AC50: > 100 µM
HepG2 cells; read-out: Cellular ATP: AC50
  AC50: > 100 µM
HepG2 cells; read-out: DNA damage: Phospho-p53: AC50
  AC50: > 100 µM
HepG2 cells; read-out: DNA damage: p-H2AX: AC50
  AC50: > 100 µM
HepG2 cells; read-out: ER stress panel 1: ER integrity: AC50
  AC50: > 100 µM
HepG2 cells; read-out: ER stress panel 1: XBP1: AC50
  AC50: 40.4 µM
HepG2 cells; read-out: ER stress panel 2: CHOP: AC50
  AC50: > 100 µM
HepG2 cells; read-out: Inflammation & pH: HIF1α: AC50
  AC50: > 100 µM
HepG2 cells; read-out: Inflammation & pH: ICAM-1: AC50
  AC50: > 100 µM
HepG2 cells; read-out: Inflammation & pH: intracellular pH: AC50
  AC50: > 100 µM
HepG2 cells; read-out: Metal stress: MTF1: AC50
  AC50: > 100 µM
HepG2 cells; read-out: Mitochondrial mass: AC50
  AC50: > 100 µM
HepG2 cells; read-out: Mitochondrial membrane potential: AC50
  AC50: 69.6 µM
HepG2 cells; read-out: Nuclear size: AC50
  AC50: > 100 µM
HepG2 cells; read-out: Osmotic & heat shock: NFAT: AC50
  AC50: > 100 µM
HepG2 cells; read-out: Oxidative stress: HMOX1: AC50
  AC50: > 100 µM
HepG2 cells; read-out: Oxidative stress: NRF2: AC50
  AC50: > 100 µM
HepG2 cells; read-out: Seahorse assay: Extracellular acidification rate (ECAR): AC50
  AC50: > 100 µM
HepG2 cells; read-out: Seahorse assay: oxygen consumption rate (OCR): AC50
  AC50: > 100 µM
HepG2 cells; read-out: Seahorse assay: reserve capacity: AC50
  AC50: > 100 µM
HepG2 cells; human, 24 h
  AhR Translocation: MEC: 51.2 µM
  Apoptosis & necrosis: caspase 3/7: MEC: 49.8 µM
  Apoptosis & necrosis: cell cycle arrest: MEC: 35.8 µM
  Cell stress LOEC, ↓ in mitochondrial membrane potential: 11.6 µM
  Cellular ATP: MEC: 31.5 µM
  DNA damage: Phospho-p53: MEC: 22.8 µM
  DNA damage: p-H2AX: MEC: 13.4 µM
  ER stress panel 1: ER integrity: MEC: 23.3 µM
  ER stress panel 1: XBP1: MEC: 40.9 µM
  ER stress panel 2: CHOP: MEC: 69.0 µM
  Inflammation & pH: HIF1α: MEC: 44.8 µM
  Inflammation & pH: ICAM-1: MEC: 34.4 µM
  Inflammation & pH: intracellular pH: MEC: 50.6 µM
  Metal stress: MTF1: MEC: 25.5 µM
  Mitochondrial mass: MEC: 15.0 µM
  Mitochondrial membrane potential: MEC: 11.6 µM
  Nuclear size: MEC: 25.2 µM
  Osmotic & heat shock: NFAT: MEC: 49.4 µM
  Oxidative stress: HMOX1: MEC: 29.9 µM
  Oxidative stress: NRF2: MEC: 29.9 µM
  Seahorse assay: Extracellular acidification rate (ECAR): MEC: 27.7 µM
  Seahorse assay: oxygen consumption rate (OCR): MEC: 41.5 µM
  Seahorse assay: reserve capacity: MEC: 34.8 µM
[2]
  Amount of parent chemical entering the systemic circulation: 7.2 % of the applied dose
[3]
  pKa (dissociation constant): 7.25 ± 0.84
ER
  ER agonist, Experimental: Active (medium)
  ER antagonist, Experimental: Active (weak)
  ER binding, Experimental: Active (medium)
5-HT2B (h)
  IC50: 0.682 µM
5-HT2B (h); read-out: 5-HT2B (h) (agonist RL): % inhibition @10 µM
  inhibition at 10 µM: 91.9%
rats; male and female rats, feed 0, 5, 50 or 500 mg/kg/day, ref McClain et al. 2006
  NOAEL, 13 weeks: 50 mg/kg/day
rats; male and female rats, feed, based on mild hepatic effects, ref McClain et al. 2006
  NOAEL, 52 weeks: 50 mg/kg/day
rats; ref McClain et al., 2006
  NOAEL from repeat dose studies: above 50 mg/kg/day
U2-OS cells; +S9 (rat liver)
  Cytotoxicity LOEC, +S9: >−5 Log M
U2-OS cells; −S9
  Cytotoxicity LOEC, −S9: >−5 Log M
Aromatase
  Steroidogenesis: Aromatase, Call: Neg
H295R cells; +S9 (preincubation with rat liver S9)
  Steroidogenesis (AR) Testosterone LOEC, +S9: −5.7 Log M
H295R cells; H295R
  LOEC, androgen synthesis (impaired): 3.2 × 10^−6 ± 0 M
H295R cells; −S9
  Steroidogenesis (AR) Testosterone LOEC, −S9: −5.5 Log M
Estrogen pathway
  AC50: 0.01 µM
Adenosine A2A (h)
  IC50: 10 µM
Adenosine A2A (h); read-out: Adenosine A2A (h) (agonist RL): % inhibition @10 µM
  inhibition at 10 µM: 52.2%
COX1 (h)
  IC50: 7.69 µM
